{"source": "patent US5880146A", "about": "“Inhibition of IL-12-induced IFN-γ synthesis by specific bis-phenol compounds as a method of immune modulation” (Fuji ImmunoPharmaceuticals Corporation, priority 1995, dated 1999)", "key": {"[1]": {"test_system": "T cell response of human PBMC to allogenic stimulation by Namalwa cells", "assay": "Mixed Lymphocyte Reaction (proliferation and IFN-γ secretion)", "assay_type": "cell-based", "conditions": "6 days; FIGS. 1-3", "description": "This reaction measures the T cell response to allogenic stimulation by a mismatch of class II histocompatability antigens. This is triggered through the T cell receptor and activates the T cell to secrete and proliferate in response to endogenous IL-2. IFN-γ is also made in response to this stimulation and accumulates in the culture medium. Compounds are tested for their ability to block the proliferation and response to antigenic stimulation as well as their ability to produce IFN-γ as follows. A human B cell ine expressing class II antigen, Namalwa (American Type Culture Collection), is incubated for 2 hr at 37° C. in RPMI-10 containing mitomycin C (50 μg/ml). These cells are washed four times by centrifugation and resuspension (10^6 cells/ml) in SF-RPMI medium and are added to the wells of 96-well plate (50 μl/well) as stimulators. Mitomycin treatment prevents these cells from proliferating in the assay. Fresh PBMC are prepared as described above in example 1, but are not activated with PHA. Instead they are resuspended at 10^6 cells/ml and 100 μl is added per well. Dilutions of test compounds are added (50 μl/well) to give a final volume of 200 μl and the plates are incubated for 6 days at 37° C. During the last 18 hr, ^3 H-thymidine (DuPont-NEN- 1 μCi/well) is added as a measure of cell proliferation, cultures are collected using a cell harvester (Packard), and scintillation fluid is added prior to counting in a Packard Top Count scintillation counter. A sample of medium is also collected for measurement of IFN-γ production prior to the addition of ^3 H-thymidine for use as a negative control."}, "[2]": {"test_system": "IL-12 induction of IFN-γ in PHA-activated human PBMC", "assay": "Screening assay for compounds which inhibit IL-12 induction of IFN-γ (ELISA)", "assay_type": "cell-based", "conditions": "5 μg/ml, IL-2 25 U/ml + IL-12 0.5 ng/ml, 48 hr, single test, read-out: % INH of IFNγ", "description": "Human peripheral blood monocytes (PBMC) were obtained from commercial sources as a leukophoresis from a healthy volunteer and were purified by centrifugation on a Ficoll-Hypaque (Pharmacia) gradient (1700 rpm for 20 min). The \"buffy\" coat containing the PBMC was diluted with serum-free culture medium (SF-RPMI) to a volume of 50 ml and collected by centrifugation at 1500 rpm for 5 min. Cells were resuspended in cell culture medium containing 10% fetal bovine serum (RPMI-10) and phytohemaglutinin (PHA - 10 μg/ml) at a density of 5×10^6 cells/ml and were cultured for 3 days at 37° C. in a humidified CO2 incubator. The PHA-activated cells were collected by centrifugation, washed three times with an equal volume of SF-RPMI and resuspended in fresh RPMI-10 (1×10^6 cells /ml). Aliquots (100 μl) were dispensed into the wells of multiple 96-well plates to give a final cell number of 10^5 per well. Test compounds, dissolved in dimethyl sulfoxide (DMSO) at 1 mg/ml, were first diluted in culture medium to an intermediate concentration of 20 μg/ml and then were added (50 μwell) to a specific well of the plate for each compound. Stimulation medium (50 μl/well) containing 10% serum, IL-2 and IL-12 was added to final concentrations of 25 U/ml and 0.5 ng/ml, respectively. Control wells receive no IL-2 or IL-12 (negative control) or received both interleukins but no test compound (positive control). The plates were incubated for 48 hr at 37° C. in a CO2 incubator at which time aliquots (20 μl) were removed for analysis of IFN-γ concentration by ELISA. A quantitative ELISA was developed by coating 96-well plates with an mouse monoclonal antibody against human IFN-γ, 1 μg/ml in phosphate buffered saline (PBS) (Pestka Biological Laboratories), overnight at 4° C. Unbound antibody was washed off by washing three times with PBS. Non-specific antibody binding was blocked with a solution of 1% bovine serum albumin (BSA) and 1% goat serum in PBS (150 μl/well) which was incubated for 2 hr at 37° C. After washing the blocked plates four times with PBS, test samples and dilutions of the IFN-γ standard are added in a final volume of 100 μl/well. Following an overnight incubation at 4° C., the plates are washed four times with PBS, and a polyclonal rabbit antiserum against human IFN-γ (1/10000 dilution--Petska Biological Laboratories) is added. After an additional incubation for 1 hr at 37° C. and four washes with PBS, a polyclonal donkey anti-rabbit detecting antibody, conjugated to horseradish peroxidase (1/700 dilution--Petska Biological Laboratories) is added for 1 hr at 37° C. The plates are then washed four times with PBS and 100 μl of K-blue substrate E(ILISA Technologies, Neogen Corp.) is added until the color in the wells containing the standard curve is sufficiently developed, at which time 100 μl of \"Red-stop\" solution (ELISA Technologies) is added. The absorbance of the solution within each well of the plate is then read at 650 nm using an ELISA plate reader (Dynatech MR7000). The amount of IFN-γ is calculated by comparing the optical density of the test sample with a standard curve derived from the dilutions of the control IFN-y. The amount of IFN-γ that is induced in the presence of both IL-2 and IL-12 generally ranges from 1200-2000 pg/ml while the amount produced in the absence of IL-12 is generally less than 50 pg/ml. Experimental data are shown in Table 2 which discloses a) the percent inhibition of IFNγ production, relative to a […], when the cells have been treated with a bis-compound at a final concentration of 5 μg/ml of the listed bis-compound (%INH or IFNγ) and b) the percent of cells which are viable after the treatment with 5 μg/ml of the various bis-compounds, determined by adding MTS to the media (% Viability). MTS is a chemical chromophore that is metabolized in the mitochondria of viable cells to produce a color which increases in intensity in proportion to the numbers of viable cells. […]"}, "[3]": {"test_system": "mice", "assay": "Toxicity of bis-compounds after single systemic dose", "assay_type": "in vivo", "conditions": "20% DMSO, 16% cremaphor"}, "[4]": {"assay": "Toxicity of bis-compounds after single systemic dose", "assay_type": "in vivo", "conditions": "mouse, in vivo, iv, 20% DMSO, 16% cremaphor, single dose"}}}
{"smiles": "CCCCCCCC(c1cc(C)cc(C)c1O)c1cc(C)cc(C)c1O", "note": "[Compound 51852]", "values": [{"measurement": "inhibition of IFN-γ secretion versus cell proliferation (in words)", "setting": "[1]", "result": "more potent inhibitors of secretion at concentrations that do not effect cell proliferation"}, {"measurement": "inhibition at 5 µg/mL", "setting": "[2]", "result": 109, "unit": "%"}]}
{"smiles": "Cc1cc(C)c(O)c(C(CC(C)CC(C)(C)C)c2cc(C)cc(C)c2O)c1", "note": "(stereo not shown) [Compound 51853, bis-1,1-[2-hydroxy-3,5-dimethylphenyl]-3,5,5-dimethyl hexan]", "values": [{"measurement": "inhibition of IFN-γ secretion versus cell proliferation (in words)", "setting": "[1]", "result": "more potent inhibitors of secretion at concentrations that do not effect cell proliferation"}, {"measurement": "Results (Dead/Alive)", "setting": "[3]; 100 mg/kg IV, 10 mg/ml", "result": "Alive"}, {"measurement": "Results (Dead/Alive)", "setting": "[3]; 150 mg/kg IV, 10 mg/ml", "result": "Dead"}, {"measurement": "Results (Dead/Alive)", "setting": "[3]; 150 mg/kg IV, 15 mg/ml", "result": "Alive"}, {"measurement": "Results (Dead/Alive)", "setting": "[3]; 200 mg/kg IV, 15 mg/ml", "result": "Alive"}, {"measurement": "LD50", "setting": "[4]; conc. sol. 10 mg/ml", "result": "100 to 150", "unit": "mg/kg"}, {"measurement": "LD50", "setting": "[4]; conc. sol. 15 mg/ml", "result": "> 200", "unit": "mg/kg"}, {"measurement": "inhibition at 5 µg/mL", "setting": "[2]", "result": 104, "unit": "%"}]}
